Assay results reported in patent US12605350B2, “Composition for preventing, ameliorating, or treating disease caused by nitration of tyrosine in proteins comprising tyrosine as effective component” (INDUSTRY-ACADEMIC COOPERATION FOUNDATION GYEONGSANG …, priority 2020, dated 2026).
Entries after “also recorded” stand apart in the source; their conditions may differ.

How the values were obtained:
[1] = test system: high-fat diet mouse model of type 2 diabetes; assay: glucose tolerance test; type: in vivo; conditions: HFD+L-Tyr vs HFD; 16 hours fasting, glucose 2 g per 1 kg i.p., 30-120 minutes
Description: Twenty-seven C57BL/6 male mice (3-week old) were acclimated to the breeding condition for 1 week. […] Blood glucose was measured every week.
D-glucose was dissolved in 1×PBS to prepare 40% D-glucose solution. Blood glucose of a mouse, which has been subjected to fasting for 16 hours, was measured, and, for having intraperitoneal injection of glucose in an amount of 2 g per 1 kg bodyweight, the animal was intraperitoneally injected with the glucose solution according to the following Formula (1). Glucose injection amount(μl)=Bodyweight(g)×5 Formula (1)
For example, for a mouse with bodyweight of 45 g, 225 μl of 40% glucose solution were injected. After the intraperitoneal injection of glucose solution, blood glucose was measured at time points of 30, 60, 90 and 120 minutes.

[2] = test system: chronic immobilization stress group (STR); assay: SPT (sucrose preference test) after chronic immobilization stress; type: in vivo, mouse; conditions: tyrosine diet (181.2 mg/kg) compared to normal diet, p<0.01
Description: The animal models were divided into two groups (i.e., normal group and stress group). The animal of stress group was individually brought by force to a restrainer for 2 hours every day (i.e., between 2 PM and 4 PM) so that it was applied with chronic immobilization stress for 15 days. Change in bodyweight and food intake amount were measured every other day.
The normal group and stress group were divided again into a normal diet group and a tyrosine-supplemented diet group (181.2 mg/kg), and then fed.
For SPT (sucrose preference test), 0.1 M sucrose and water were provided for 48 hours so that the animals are habituated with them. After that, none of 0.1 M sucrose and water was provided for 24 hours, and then 0.1 M sucrose and water were provided again for 6 hours. Then, 0.1 M sucrose and water were moved to different positions for 3 hours.
After that, consumption amount of sucrose and water was measured, and the sugar preference was calculated in terms of the ratio of provided sucrose compared to total consumption amount.

[3] = test system: chronic immobilization stress group (STR); assay: ROS/RNS in plasma and PFC, chronic immobilization stress; type: in vivo, mouse; conditions: tyrosine diet (181.2 mg/kg) compared to normal diet
Description: Each of the blood and PFC sample was obtained from a mouse anesthetized with CO2 gas. Specifically, mouse blood was collected between 9 AM and 11 AM and stored in a K3EDTA-coated vacuum container. Plasma was obtained by centrifuge for 10 minutes at 4° C., 500×g. PFC sample was weighed first, and, after lysis of the tissues by using Bullet homogenizer, subjected to centrifuge for 20 minutes at 4° C., 12,000 rpm. Thus-obtained plasma and tissue lysate were kept at −80° C. until use. After that, the animal was sacrificed, and a change in corticosterone amount in plasma was examined. ROS/RNS in plasma and PFC was also examined. The corticosterone amount was examined using an ELISA kit (Cayman) by following the manufacturer's protocol, and ROS/RNS was also examined using an ROS/RNS assay kit (Cell Biolabs, San Diego, CA, USA) by following the manufacturer's protocol. The animal models were divided into two groups (i.e., normal group and stress group). The animal of stress group was individually brought by force to a restrainer for 2 hours every day (i.e., between 2 PM and 4 PM) so that it was applied with chronic immobilization stress for 15 days. Change in bodyweight and food intake amount were measured every other day. The normal group and stress group were divided again into a normal diet group and a tyrosine-supplemented diet group (181.2 mg/kg), and then fed.

[4] = test system: mouse model of epileptic seizure which has been induced to have seizure by kainic acid; assay: immunohistochemistry of hippocampal area (CA1, CA3): neurons (NeuN) and microglia (Iba1) after kainic acid; type: in vivo; conditions: tyrosine diet
Description: Blood perfusion with PBS and PFA was carried out through animal heart, and the brain was removed and post-fixed in PFA for 15 hours or longer. After washing 3 times for 10 minutes with PBS, brain tissue specimen with thickness of 40 μm was obtained using a vibratome.
In IHC buffer solution (PBS containing 0.3% Triton X-100) in which 3% bovine serum albumin is dissolved, the above-obtained brain specimen was blocked for 1 hour at room temperature and then reacted at 4° C. for 15 hours or longer with a primary antibody (anti-NeuN (Millipore, MAB377, 1:500), anti-Ibal (Wako, 019-19741, 1:200)) (IHC buffer solution containing 3% BSA). After washing 3 times, each for 10 minutes, with the IHC buffer solution, it was reacted with a flurolabeled secondary antibody (anti-Mouse IgG Alexa Fluor 488 (Invitrogen, 1:1000), anti-Rabbit IgG AlexaFluor594 (Invitrogen, […])) for 2 hours at room temperature (IHC buffer solution containing 3% BSA). After washing 3 times, each for 10 minutes, with the IHC buffer solution, the specimen was fixed on a silane-coated glass slide. An anti-fade solution containing DAPI was added onto the specimen and then dried after covering with a cover glass. Signal density of an image photographed with a fluorescent microscope was analyzed by using Image J analysis program.

[5] = test system: mouse model of chronic immobilization stress; assay: object recognition test (ORT); type: in vivo; conditions: D-Tyr-containing diet (181 mg D-Tyr/kg AIN-93G), chronic stress 14 days
Description: Twenty-eight C57BL/6 male mice (7-week old) were divided into two groups, each group provided for 1 week with a normal diet or D-tyrosine (D-Tyr)-containing diet (181 mg D-Tyr/kg AIN-93G).
Once the animals become 8-week old, they were applied with chronic immobilization stress (CIS) under light condition of 200 lux, 2 hours per day for 2 weeks. The animals were divided into the control group (CTL), D-Tyr diet control group (CTL+D-Tyr), chronic stress group (STR), and D-Tyr diet chronic stress group (STR+D-Tyr), in which each group consists of 7 animals.
Upon the completion of the CIS for 2 weeks, a cognitive function test was carried out. To compare the cognitive function between the group provided with D-Tyr-containing diet over the entire test period including habituation period and normal feed diet group, an object recognition test (ORT) and an object location recognition test (OLT) for testing long-term memory skills were carried out.
ORT: The test consists of three stages, i.e., habituation, familiarization, and test. The animals were habituated in a test box, 10 minutes per day for 2 days. At the familiarization stage on Day 3, they were allowed to explore two identical objects for 10 minutes. […] The object recognition function index (i.e., discrimination index: DI) was calculated based on the following formula (3). […]

SMILES | blood glucose, glucose tolerance test [1] | sugar preference [2] | ROS/RNS in PFC tissues [3] | ROS/RNS in plasma [3] | activity of microglia in hippocampal area (CA1, CA3) [4] | number of the neuronal cells in hippocampal area (CA1, CA3) [4] | ORT (object recognition function index, DI) [5]
N[C@@H](Cc1ccc(O)cc1)C(=O)O [L-tyrosine] | statistically significant decrease in blood glucose amount |  |  |  |  |  | 
N[C@@H](Cc1ccc(O)cc1)C(=O)O [tyrosine] |  | statistically significant increase in the sugar preference | statistically significant decrease in ROS/RNS | statistically significant decrease in ROS/RNS | reduced; also recorded: significant decrease in the activity of microglia | maintained without a loss | no statistically significant difference
